{
  "source": "patent US20070099821A1",
  "about": "“METHOD OF ACTIVATING INSULIN RECEPTOR SUBSTRATE-2 TO STIMULATE INSULIN PRODUCTION” (Sanofi-Aventis Deutschland GmbH, priority 2001, published 2007)",
  "key": {"[1]": {"test_system": "INS-1 cells", "test": "Cytokine-induced apoptosis in pancreatic β-cells (INS-1, nucleosomal release ELISA)", "assay_type": "cell-based, rat", "conditions": "IL-1β + IFN-γ, 24 h, IGF-I 10 nM, mean ± SEM of 4-5 experiments", "description": "The rat insulinoma cell line INS-1 was grown in RPMI 1640 medium supplemented with 10% heat-inactivated fetal calf serum (FCS), 500 U/ml penicillin, 50 μg/ml streptomycin, 2 mmol/l glutamine and 50 μmol/l 2-mercaptoethanol and passaged by trypsinization. Functional integrity of the cells was confirmed by measuring glucose-stimulated insulin secretion. INS-1 cells were routinely seeded at 3.5×10^5 cells/well of a 12-well plate for cell death detection experiments and used on day 4 at 60-70% confluence.\nSubconfluent INS-1 cells were incubated for 2 h in RPMI 1640 medium (Eggenstein, Germany) without FCS supplemented with 0.5% BSA. After this serum free period the medium was removed and replaced with fresh RPMI 1640 containing 5% FCS and 0.5% BSA. […] The induced apoptosis was measured by the specific determination of mono- and oligonucleosomes in the cytoplasmatic fraction of cell lysates using a cell death detection ELISA kit (Roche). The assay is based on a quantitative sandwich-enzyme-immunoassay-principle using mouse monoclonal anti-histone and anti-DNA peroxidase antibodies. The relative degree of apoptotic cell death was photometrically determined by measuring the peroxidase activity of the immunocomplexes at 405 nm. […]"}, "[2]": {"test_system": "K6 myoblasts", "test": "DNA synthesis (BrdU incorporation) in K6 myoblasts", "assay_type": "cell-based, rat", "conditions": "serum-starved K6 myoblasts, 16 h; FCS at 10%", "description": "Effects of insulin, insulin analogs and IGF-I on the incorporation of 5-bromo-2′-deoxyuridine (BrdU) into DNA in K6 myoblasts. Myoblasts were serum-starved for 30 h in DMEM and subsequently incubated with BrdU in the absence (basal) or presence of the indicated concentrations of peptide hormones or fetal calf serum (FCS) for 16 h. Cells were fixed, denatured and the incorporation of BrdU was determined using an anti-BrdU antiserum and ECL detection. Data are mean values±SEM of four separate experiments.\nFor monitoring DNA synthesis, K6 myoblasts (1×10^4 cells/well) were seeded in 24-well microtiter tissue culture plates and were cultured for 24 h in DMEM containing 10% FCS, followed by a 30 h culture period under serum-free conditions. Cells were then stimulated with the different peptide hormones or 10% FCS for 16 h with the simultaneous addition of 5-bromo-2′-deoxyundine (BrdU). After removing the labeling mediums the cells were fixed and the DNA was denatured by addition of FixDenat (Boehringer Mannheim, Germany). Cells were then incubated with a peroxidase-conjugated anti-BrdU antiserum, and after addition of substrate the light emission was quantified on a Lumilmager work station."}},
  "data": [
    {"substance": "IGF-I: insulin-like growth factor I, peptide hormone used as comparator", "values": [
      {"measurement": "Inhibition of cytokine-induced apoptosis", "setting": "[1]", "value": "42 ± 2", "unit": "%"},
      {"measurement": "Increase in BrdU-incorporation / DNA synthesis, fold", "setting": "[2]", "value": 4, "unit": "fold"}
    ]}
  ]
}
